Assay results taken from patent US20220074923A1, “METHODS OF IDENTIFYING PARKIN-MEDIATED MITOPHAGY ACTIVATING AGENTS” (THE GOVERNING COUNCIL OF THE UNIVERSITY OF TORONTO, priority 2018, published 2022).

How the values were obtained:
[1] = tested on: HeLa cells; assay: Mito-QC assay (targeting of mitochondria to lysosomes); assay type: cell-based; settings: 0.5 μM 2 h pre-treatment, 10 μM CCCP 6 h with E-64 and leupeptin
Procedure: HeLa cells were seeded into 6-well plates containing glass coverslips and allowed to adhere overnight. Cells were co-transfected with RGOMP25 and Cerulean-Parkin plasmids 24 hours prior to treatments. E-64 and leupeptin were added along with either DMSO or 10 μM CCCP for 6 hours prior followed by a PBS wash, fixation with 4% PFA and a final PBS wash prior to mounting onto glass slides with Fluoromount.
Cells were treated with 50 μM chloroquine for 16 hours prior to addition of E64, leupeptin, SR3677 and CCCP in the indicated treatment group. For the in vivo mitoQC assays, 5 7-day old male TH-GAL4>UAS-mitoQC were placed into vials containing water (control), sublethal 1 mM paraquat, 1 mM SR3677 alone and in combination with paraquat for 7 days. […] Fly brains were mounted in VectaShield™ mounting medium for imaging using the Zeiss LSM700 confocal fluorescence microscope with 40× 1.4 NA Oil Plan-APOCRAMAT objective and the appropriate lasers and filter. […]
Quantification of the RG assay was done using Fiji software. […] A red/green fluorescence intensity ratio was determined for each pixel. Pixels were considered red-only if the red/green fluorescence ratio was greater than or equal to 1.5. The area of red-only pixels over the total non-background area was determined and averaged across 4 independent trials in which at least 20 cells were quantified per treatment.

[2] = tested on: HeLa cells stably expressing GFP parkin and mito-DsRed; assay: Mitochondrial clearance assay; assay type: cell-based
Procedure: HeLa cells stably expressing GFP parkin and mito-DsRed were seeded into 12-well plates containing coverslips and allowed to adhere overnight. Cells were then treated with DMSO or 0.5 μM SR3677 for 2 hours prior to addition of 10 μM CCCP for 24 hours. Cells were then washed with PBS, fixed with 4% PFA and washed with PBS again prior to the mounting of coverslips onto glass slides. Mitochondrial clearance was quantified by counting the number of cells in each treatment to retain mito-DsRed signal. 3 independent trials were performed with at least 50 cells quantified per trial.

[3] = tested on: HK2; assay: HK2 mitochondrial fraction and phosphorylation (fractionation, Phos-tag immunoblot); assay type: cell-based
Procedure: (a) SH-SY5Y treated with either 0.5 μM SR3677 or with DMSO were separated into total cell cytosolic and mitochondrial fractions. Fractions were separated by SDS-PAGE and immunoblotting was performed with anti-HK2 and anti-ATP5A antibodies. (b) The proposed mechanism through which SR3677 increases Parkin recruitment. (c) Cells serum-starved for 2 hours were treated with either DMSO or SR3677 for 10 or 30 minutes prior to harvesting. Lysates were separated by SDS-PAGE and immunoblotting was performed with anti-HK2 and anti-actin antibodies. Samples were also run on Phos-tag gels in parallel and immunoblotting was performed with anti-HK2 antibody. (d) Densitometry analysis was performed to quantify HK2 levels in each sample, followed by (e) normalization to mitochondrial marker, CValpha. Average HK2/CValpha ratios are plotted (n=2 independent experiments). (f) Densitometry analysis was performed on the band indicated by the arrow in (c). The average intensity of the indicated band normalized to actin loading control is expressed[…] (n=3 independent experiments). P-values were determined by paired student's t-test for (b, f), *P<0.05. All error bars represent s.e.m. […]

[4] = tested on: HeLa cells; assay: HK2 distribution after mitochondrial damage; assay type: cell-based; settings: HeLa cells which lack endogenous Parkin
Text: Since HK2 is also a Parkin substrate, HeLa cells which lack endogenous Parkin were used to examine the effect of SR3677 treatment on HK2 distribution^43.

[5] = tested on: TH-GAL4>UAS-mitoQC flies; assay: In vivo mitoQC assay in dopaminergic neurons; parameters: species or system Drosophila; settings: SR3677 with sublethal paraquat dose (1 mM), 7 days, vs water
Procedure: Cells were treated with 50 μM chloroquine for 16 hours prior to addition of E64, leupeptin, SR3677 and CCCP in the indicated treatment group. For the in vivo mitoQC assays, 5 7-day old male TH-GAL4>UAS-mitoQC were placed into vials containing water (control), sublethal 1 mM paraquat, 1 mM SR3677 alone and in combination with paraquat for 7 days. Whole flies were then fixed overnight in 1% PFA and 0.1% Tx-100. Fly brains were then dissected and fixed with 4% PFA for 20 minutes. 3 10-minute PBS washes were performed in between each step. Fly brains were mounted in VectaShield™ mounting medium for imaging using the Zeiss LSM700 confocal fluorescence microscope with 40× 1.4 NA Oil Plan-APOCRAMAT objective and the appropriate lasers and filter. 0.8 μm z-stacks were acquired to capture dopaminergic neurons expressing the mitoQC transgene. Laser settings were kept constant within each trial. At least 2 fly brains were imaged for each treatment across 4 independent trials.
The mitoQC assay may also be performed in Drosophila to quantify mitophagy specifically in cell types of interest using the GAL4/UAS system. Briefly, the mitoQC transgene was expressed in dopaminergic neurons using the TH-GAL4 driver^41. Since CCCP cannot be administered without affecting the viability of the flies, 7-day old flies were fed the parkinsonian toxin, paraquat. […]

[6] = tested on: S2R+ cells; assay: mitoSOX mitochondrial superoxide staining; assay type: cell-based; settings: co-treatment with paraquat
Procedure: A) Staining was performed with mitoSOX Red Mitochondrial Superoxide dye. B) Quantification of the fluorescence intensity of the mitoSOX probe in the indicated treatments (n=3). Data is presented as mean±s.e.m. P-values were determined by paired student's t-test, *P-value<0.05.
Whether SR3677 may protect against paraquat-induced phenotypes by interfering with paraquat's activity was also assessed. Paraquat gives rise to mitochondrial superoxide species that can be detected using mitoSOX, a fluorescent probe that is targeted to mitochondria, where it may be oxidized by superoxides. The oxidized mitoSOX species fluoresces upon encountering nucleic acid. The fluorescence intensity of Schneider's S2-R^+ cells, a cell line derived from dissociated embryos with a flat morphology amenable to imaging, was assessed following treatments with paraquat or paraquat and SR3677.

[7] = biological target: ROCK2 (Homo sapiens, UniProt O75116); settings: biochemical and cell-based assays, previous studies; cited from earlier work
ROCK2, sequence (O75116 whole entry): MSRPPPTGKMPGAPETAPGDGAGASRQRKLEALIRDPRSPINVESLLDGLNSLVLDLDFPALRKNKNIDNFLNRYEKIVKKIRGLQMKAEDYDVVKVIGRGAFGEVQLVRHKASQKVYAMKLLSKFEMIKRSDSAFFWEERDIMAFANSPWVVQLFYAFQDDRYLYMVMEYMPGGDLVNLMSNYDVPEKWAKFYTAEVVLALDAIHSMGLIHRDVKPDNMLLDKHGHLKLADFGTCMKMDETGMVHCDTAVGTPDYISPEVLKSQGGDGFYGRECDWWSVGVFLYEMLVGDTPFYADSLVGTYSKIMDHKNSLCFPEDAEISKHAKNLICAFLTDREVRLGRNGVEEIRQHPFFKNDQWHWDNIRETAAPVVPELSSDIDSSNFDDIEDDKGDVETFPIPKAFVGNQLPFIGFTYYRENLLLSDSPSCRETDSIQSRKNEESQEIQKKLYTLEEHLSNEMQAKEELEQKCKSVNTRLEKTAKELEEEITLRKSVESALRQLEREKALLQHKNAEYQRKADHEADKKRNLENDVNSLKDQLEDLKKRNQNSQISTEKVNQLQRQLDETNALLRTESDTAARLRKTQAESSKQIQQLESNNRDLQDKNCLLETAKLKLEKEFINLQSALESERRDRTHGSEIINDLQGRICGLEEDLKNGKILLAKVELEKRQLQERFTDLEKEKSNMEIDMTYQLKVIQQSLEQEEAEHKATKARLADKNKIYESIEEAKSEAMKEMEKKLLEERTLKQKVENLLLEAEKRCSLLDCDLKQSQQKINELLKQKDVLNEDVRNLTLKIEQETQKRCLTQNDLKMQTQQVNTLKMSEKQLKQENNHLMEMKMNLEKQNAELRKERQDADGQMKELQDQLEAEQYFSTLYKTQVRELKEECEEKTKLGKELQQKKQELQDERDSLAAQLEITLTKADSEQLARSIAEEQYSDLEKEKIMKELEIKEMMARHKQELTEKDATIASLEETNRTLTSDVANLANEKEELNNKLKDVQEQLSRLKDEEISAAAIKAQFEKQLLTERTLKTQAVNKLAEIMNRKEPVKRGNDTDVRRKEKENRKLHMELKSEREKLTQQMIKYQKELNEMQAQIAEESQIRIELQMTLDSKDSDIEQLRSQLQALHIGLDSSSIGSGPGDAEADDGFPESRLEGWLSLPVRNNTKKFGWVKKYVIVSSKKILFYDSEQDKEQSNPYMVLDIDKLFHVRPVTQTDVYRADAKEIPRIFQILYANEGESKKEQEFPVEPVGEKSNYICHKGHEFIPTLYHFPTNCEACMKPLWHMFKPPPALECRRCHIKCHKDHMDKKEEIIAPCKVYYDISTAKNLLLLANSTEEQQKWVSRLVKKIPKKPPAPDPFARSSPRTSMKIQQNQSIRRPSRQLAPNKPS

In the case of `CN(C)CCOc1cc(-c2cn[nH]c2)ccc1NC(=O)[C@@H]1COc2ccccc2O1` [SR3677], the “mitochondrial targeting to lysosomes (red-only mitochondrial area)” value [1] is reported as “increased the extent of mitochondrial targeting to lysosomes”, the “mitochondrial mass without CCCP” value ([2]; 0.5 μM SR3677, 24 hour DMSO treatment) is reported as “retained mitochondrial mass” and the “% of cells that retained mito-DsRed” value ([2]; pre-treated with 0.5 μM SR3677, 24 hour 10 μM CCCP) is reported as 28±8.21%. For the same compound, the “HK2 in the mitochondrial fraction” value ([3]; SH-SY5Y cells, 0.5 μM) was “More HK2 was observed in the mitochondrial fraction”, the “phosphorylation of HK2 (Phostag gels)” value ([3]; serum-starved cells, 10 or 30 minutes) was “Increased phosphorylation of HK2” and the “mitochondrial distribution of HK2 following mitochondrial damage” value [4] was “increases the mitochondrial distribution of HK2”. The “percentage of red-only mitochondrial signal over the total mitochondrial signal” value [5] was “greater than flies whose food was supplemented with water”, the “paraquat-mediated increase in mitochondrial superoxide levels” value [6] was “does prevent the paraquat-mediated increase in mitochondrial superoxide levels” and the ROCK2 inhibition [7] was “selectively inhibits ROCK2”.
